Format in all cases: functional, HeLa S3
Assay [1] concerns Enterovirus C.
For assay [2], the system named is Enterovirus C. This is another data set of the same source.
For assay [3], the system named is Enterovirus C. The source holds these as a separate data set.
Assay [4] deals with Enterovirus C. This is another data set of the same source.
Assay [5] deals with Enterovirus C. This is another data set of the same source.
Assay [6] relates to Enterovirus C. This is another data set of the same source.

Consider 3 compounds from ChEMBL document CHEMBL1269004, “Synthesis of a 6-methyl-7-deaza analogue of adenosine that potently inhibits replication of polio and dengue viruses” (J Med Chem, 2010).

Turning to `Cc1ncnc2c1ccn2[C@@H]1O[C@H](CO)[C@@H](O)[C@H]1O`, the PFU in assay [1] was determined as 19; in assay [2], 17.
In the case of `Cc1ncnc2c1ncn2[C@@H]1O[C@H](CO)[C@@H](O)[C@H]1O`, the values for the PFU in assay [3] and in assay [4] were 12 and 22, respectively.
With `NC(=O)c1ncn([C@@H]2O[C@H](CO)[C@@H](O)[C@H]2O)n1` [RIBAVIRIN], the PFU in assay [5] is reported as 150; in assay [6] it was over 250.
